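96-well plates; 48 h exposure; 5 concentrations. Endpoints by linear interpolation between flanking doses. Not reached: highest tested concentration assigned. GI50: concentration for 50% inhibition of growth. The concentration for full growth arrest is given as TGI.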
Columns and labels:
Assay in all cases: growth of human tumour cells (NCI), 48 h
EKVX NSCLC = test system: EKVX NSCLC
HOP-62 NSCLC = test system: HOP-62 NSCLC
MDA-MB-435 = test system: MDA-MB-435
NCI-H23 lung = test system: NCI-H23 lung
RPMI-8226 leukemia = test system: RPMI-8226 leukemia
SF-268 CNS = test system: SF-268 CNS
SF-539 CNS = test system: SF-539 CNS
SK-MEL-2 melanoma = test system: SK-MEL-2 melanoma
SK-MEL-5 melanoma = test system: SK-MEL-5 melanoma
SN12C renal = test system: SN12C renal

Compound | TGI (EKVX NSCLC) | TGI (HOP-62 NSCLC) | TGI (MDA-MB-435) | TGI (NCI-H23 lung) | TGI (RPMI-8226 leukemia) | TGI (SF-268 CNS) | TGI (SF-539 CNS) | TGI (SK-MEL-2 melanoma) | TGI (SK-MEL-5 melanoma) | TGI (SN12C renal) | GI50 (EKVX NSCLC) | GI50 (HOP-62 NSCLC) | GI50 (MDA-MB-435) | GI50 (NCI-H23 lung) | GI50 (RPMI-8226 leukemia) | GI50 (SF-268 CNS) | GI50 (SF-539 CNS) | GI50 (SK-MEL-2 melanoma) | GI50 (SK-MEL-5 melanoma)
O=S1(=O)OCCOS(=O)(=O)C1(F)Cc1ccccc1 | > 100 µM | > 100 µM | > 100 µM | > 100 µM | > 100 µM | > 100 µM | > 100 µM | > 100 µM | > 100 µM | > 100 µM | – | – | – | – | – | – | – | – | –
CN1C/C(=C\c2cccs2)C2=NN(c3ccccc3)C(c3cccs3)C2C1 (stereo not given) | > 100 µM | > 100 µM | 3.86 µM | > 100 µM | > 100 µM | > 40.6 µM | > 100 µM | > 100 µM | > 100 µM | > 100 µM | – | – | – | – | – | – | – | – | –
O=C1C=C(NCCc2ccc(O)c([N+](=O)[O-])c2)C(=O)c2[nH]cnc21 | 72.2 µM | > 100 µM | 33.7 µM | 45 µM | > 100 µM | – | 90.5 µM | 51.1 µM | 30.3 µM | > 100 µM | – | – | – | – | – | – | – | – | –
O=C(CC(C(=O)c1ccsc1)c1cccs1)c1ccccc1 (stereo not given) | > 100 µM | > 100 µM | > 100 µM | 93.3 µM | > 100 µM | > 100 µM | > 100 µM | – | > 100 µM | > 100 µM | – | – | – | – | – | – | – | – | –
O=C(CCCc1cccc2[nH]c3c(c12)CN(Cc1ccccc1)CC3)c1ccc(F)cc1 | > 100 µM | > 52.6 µM | > 100 µM | > 52.3 µM | > 95.1 µM | > 100 µM | > 100 µM | > 100 µM | 45.8 µM | > 100 µM | – | – | – | – | – | – | – | – | –
COc1ccc(C2CC(c3sc(Nc4ccc(C)cc4)nc3C)=NN2)cc1 (stereo not given) | 47.8 µM | 38.3 µM | – | 30.7 µM | 41.4 µM | 37.4 µM | 29 µM | 30.7 µM | 30.1 µM | 28.9 µM | – | – | – | – | – | – | – | – | –
CCC1(O)C(=O)OCc2c1cc1n(c2=O)Cc2cc3cc4c(cc3nc2-1)OCO4 (stereo not given) | 4.27 µM | < 0.0198 µM | 9.1 µM | < 0.0109 µM | 7 µM | 0.761 µM | – | 2.01 µM | 0.02 µM | 4.1 µM | – | – | – | – | – | – | – | – | –
Cc1cccc2c(=O)c3cccc([C@H](C)C(=O)O)c3oc12 | > 100 µM | > 100 µM | > 100 µM | > 100 µM | > 100 µM | > 100 µM | > 100 µM | > 100 µM | > 100 µM | > 100 µM | – | – | – | – | – | – | – | – | –
CCOC(=O)/C(C(N)=O)=C(\O)C(=O)/C=C(\O)c1ccc(Cl)cc1 | 58.3 µM | 60.7 µM | 57.7 µM | 33.6 µM | 44.8 µM | 59.9 µM | – | 34.4 µM | 36.8 µM | 32.2 µM | – | – | – | – | – | – | – | – | –
CC(=O)OCC1OC(n2c(C)c(C)cc(C#N)c2=S)C(OC(C)=O)C(OC(C)=O)C1OC(C)=O (stereo not given) | > 100 µM | > 100 µM | – | > 100 µM | > 100 µM | > 100 µM | > 100 µM | > 100 µM | > 100 µM | > 100 µM | – | – | – | – | – | – | – | – | –
COc1cc(/C=C2\C(=O)N(c3cccc(NC(C)=O)c3)C(c3ccccc3)S2(=O)=O)cc(OC)c1OC (stereo not given) | > 100 µM | > 100 µM | > 100 µM | > 100 µM | > 100 µM | – | > 100 µM | > 100 µM | > 100 µM | > 100 µM | – | – | – | – | – | – | – | – | –
CC(C)(C)OC(=O)NC(CSCc1ccc(C(=O)c2ccccc2)cc1)C(=O)N1CCN(CCCCN2c3ccccc3Sc3cc(N=[N+]=[N-])ccc32)CC1 (stereo not given) | > 100 µM | > 100 µM | > 100 µM | > 100 µM | – | > 100 µM | > 100 µM | > 100 µM | > 100 µM | > 100 µM | – | – | – | – | – | – | – | – | –
CCC1(CC)C(=O)NC(=O)NC1=S | > 100 µM | > 100 µM | – | > 100 µM | > 100 µM | > 100 µM | > 100 µM | > 100 µM | – | > 100 µM | – | – | – | – | – | – | – | – | –
CCN(CC)CCC(=O)/C=C/c1ccc(Cl)c(Cl)c1 | > 10 µM | > 10 µM | > 10 µM | > 10 µM | 0.603 µM | > 10 µM | – | > 10 µM | – | 4.24 µM | – | – | – | – | – | – | – | – | –
CC1OC(NCCNCCNC2OC(C)C(O)C(O)C2O)C(O)C(O)C1O (stereo not given) | > 100 µM | > 100 µM | – | > 100 µM | > 100 µM | > 100 µM | > 100 µM | > 100 µM | > 100 µM | > 100 µM | – | – | – | – | – | – | – | – | –
O=[N+]([O-])c1ccc(C[P+]2(c3ccccc3)CCCCC2)cc1 (tested in a mixture with another compound) | > 100 µM | > 100 µM | – | > 100 µM | > 100 µM | > 100 µM | > 100 µM | > 100 µM | 84.2 µM | > 100 µM | – | – | – | – | – | – | – | – | –
Cc1nc2c(Cl)cc(Cl)cc2c2c1CCO2 | > 100 µM | – | > 100 µM | > 100 µM | > 100 µM | > 100 µM | > 100 µM | > 100 µM | > 100 µM | > 100 µM | – | – | – | – | – | – | – | – | –
O=C1c2c(c3c4cc(F)ccc4oc3c3[nH]c4ccccc4c23)C(=O)N1O | 65.8 µM | 17.3 µM | > 100 µM | 8.45 µM | 7.31 µM | 25.4 µM | 9.09 µM | 12.6 µM | 2.6 µM | – | 6.85 µM | 1330 nM | 3.02 µM | 1650 nM | 1220 nM | 1200 nM | 1600 nM | 3.06 µM | 1230 nM
CC(O)C(CO)NC(=O)C1CSSCC(NC(=O)C(N)Cc2ccccc2)C(=O)NC(Cc2ccccc2)C(=O)NC(Cc2c[nH]c3ccccc23)C(=O)NC(CCCCN)C(=O)NC(C(C)O)C(=O)N1 (stereo not given) | > 100 µM | > 100 µM | > 100 µM | > 100 µM | > 100 µM | > 100 µM | > 100 µM | – | > 100 µM | > 100 µM | – | – | – | – | – | – | – | – | –
CC(C#N)(NO)C(C)(C#N)NO (stereo not given) | > 100 µM | – | > 100 µM | > 100 µM | > 100 µM | > 100 µM | > 100 µM | > 100 µM | > 100 µM | > 100 µM | – | – | – | – | – | – | – | – | –
CCC(C)C(Nc1c2ccccc2nc2c(C(=O)NCCN(C)C)cccc12)C(=O)O (stereo not given) | 77 µM | > 100 µM | 41.9 µM | 79.3 µM | > 100 µM | 39.4 µM | – | 46.7 µM | > 100 µM | > 100 µM | – | – | – | – | – | – | – | – | –

Source: PubChem BioAssay (NCI)
